Laboratory results taken from patent US9932309B2, “2-oxo-3,4-dihydropyridine-5-carboxylates and their use” (UNIVERSITE DE LILLE 2 DROIT ET SANTE, priority 2014, dated 2018).
Where a name gives a salt, the structure may show the parent alone.

What was measured:
hTGR5 = target: T1, hTGR5 (Homo sapiens, UniProt Q8TDU6); experiment: TGR5/CRE Luciferase Assay (hTGR5); format: cell-based; conditions: for EC50: HEK 293 cells co-transfected with pCMV tag4b-TGR5h and pCRE TA-Luciferase, overnight incubation; for hTGR5 % trans: percentage of the 10 μM LCA value, HEK 293 cells transfected with hTGR5
T1 construct: expressed in transfected cells; host or cells: HEK293 cells, transiently co-transfected with the pCRE TA-Luciferase reporter
T1 sequence (Q8TDU6 1-330): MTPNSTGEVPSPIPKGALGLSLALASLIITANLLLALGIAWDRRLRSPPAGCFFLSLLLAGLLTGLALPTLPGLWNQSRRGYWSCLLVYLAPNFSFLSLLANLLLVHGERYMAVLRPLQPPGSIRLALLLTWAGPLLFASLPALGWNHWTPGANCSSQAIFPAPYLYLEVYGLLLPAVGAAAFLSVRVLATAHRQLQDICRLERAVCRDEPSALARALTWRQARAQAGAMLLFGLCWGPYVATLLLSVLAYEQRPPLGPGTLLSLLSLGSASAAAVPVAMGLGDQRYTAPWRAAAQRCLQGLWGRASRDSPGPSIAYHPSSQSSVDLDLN
In short: (§1)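 cAMP-dependent luciferase luminescence was measured after overnight compound exposure (duplicate concentration series) and fitted to a four-parameter logistic equation. Cells: HEK293 transiently co-expressing hTGR5 or mTGR5 with a CRE reporter; lithocholic acid at 10 μM was the reference agonist.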

mTGR5 = target: T2, mTGR5 (Mus musculus, UniProt Q80SS6); experiment: TGR5/CRE Luciferase Assay (mTGR5); format: cell-based; conditions: for EC50: HEK 293 cells co-transfected with pCMV AC6-TGR5m and pCRE TA-Luciferase, overnight incubation; for mTGR5 % trans: percentage of the 10 μM LCA value, HEK 293 cells transfected with mTGR5
T2 construct: expressed in transfected cells; host or cells: HEK293 cells, transiently co-transfected with the pCRE TA-Luciferase reporter
T2 sequence (Q80SS6 1-329): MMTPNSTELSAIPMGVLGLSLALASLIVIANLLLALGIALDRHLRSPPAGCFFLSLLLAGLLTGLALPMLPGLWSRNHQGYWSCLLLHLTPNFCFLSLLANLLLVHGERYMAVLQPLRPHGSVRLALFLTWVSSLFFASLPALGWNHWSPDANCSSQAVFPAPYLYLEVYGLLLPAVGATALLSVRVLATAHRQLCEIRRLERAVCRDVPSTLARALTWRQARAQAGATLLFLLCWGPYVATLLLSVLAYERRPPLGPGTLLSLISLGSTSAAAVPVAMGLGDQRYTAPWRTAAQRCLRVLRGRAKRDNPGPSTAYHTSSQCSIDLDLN
In short: as §1

| Compound | EC50 (hTGR5) [µM] | hTGR5 % trans (hTGR5) [%] | EC50 (mTGR5) [µM] | mTGR5 % trans (mTGR5) [%] |
| --- | --- | --- | --- | --- |
| COc1ccccc1COC(=O)C1=C(C)N(CC2CC2)C(=O)CC1c1ccc(Cl)cc1 (centres unmarked) [Compound 70, o-methoxybenzyl 4-(4-chlorophenyl)-1-(cyclopropylmethyl)-6-methyl-2-oxo-3,4-dihydropyridine-5-carboxylate] | 0.07 | 65 | 0.08 | 102 |
| COCCN1C(=O)CC(c2ccc(Cl)cc2)C(C(=O)NCc2ccccc2)=C1C (centres unmarked) [Example 75, N-benzyl-4-(4-chlorophenyl)-1-(2-methoxyethyl)-6-methyl-2-oxo-3,4-dihydropyridine-5-carboxamide] | 7.8 | 34 | 18.3 | 25 |
| CC1=C(C(=O)OCc2ccc(OCCS(=O)(=O)O)cc2)[C@H](c2ccc(Cl)cc2)CC(=O)N1C[C@H]1CCCO1.N [Example 144, Ammonium 2-[4-[[(4S)-4-(4-chlorophenyl)-6-methyl-2-oxo-1-[[(2R)-tetrahydrofuran-2-yl]methyl]-3,4-dihydropyridine-5-carbonyl]oxymethyl]phenoxy]ethanesulfonate] | 0.06 | 95 | 0.1 | 158 |
| CC1=C(C(=O)OCc2ccccc2)C(c2ccc(Cl)cc2)CC(=O)N1CCN (centres unmarked) [Compound 53, Hydrochloride salt of benzyl 1-(2-aminoethyl)-4-(4-chlorophenyl)-6-methyl-2-oxo-3,4-dihydropyridine-5-carboxylate] | 4.3 | 16 | – | 0 |
| COCCN1C(=O)CC(c2ccc(Cl)cc2)C(C(=O)OCc2ccccc2C)=C1C (centres unmarked) [Example 98, o-tolylmethyl 4-(4-chlorophenyl)-1-(2-methoxyethyl)-6-methyl-2-oxo-3,4-dihydropyridine-5-carboxylate] | 0.3 | – | 0.5 | – |
| CC1=C(C(=O)OCc2ccccc2)C(c2ccc(Cl)cc2)CC(=O)N1CC#N (centres unmarked) [Compound 63, Benzyl 4-(4-chlorophenyl)-1-(cyanomethyl)-6-methyl-2-oxo-3,4-dihydropyridine-5-carboxylate] | 2.2 | 50 | 2 | 57 |
| CC1=C(C(=O)OCc2ccccc2)C(c2ccccc2)CC(=O)N1 (centres unmarked) [Compound 14, 2-Methyl-6-oxo-4-phenyl-1,4,5,6-tetrahydro-pyridine-3-carboxylic acid benzyl ester] | 7.6 | 30 | 10.3 | 18 |
| COCCN1C=C(C(=O)NCc2ccccc2)C(c2ccc(Cl)cc2)CC1=O (centres unmarked) [Compound 33, N-benzyl-4-(4-chlorophenyl)-1-(2-methoxyethyl)-2-oxo-3,4-dihydropyridine-5-carboxamide] | 6.4 | 42 | 11 | 14 |
| CC1=C(C(=O)OCc2ccccc2)C(c2ccc(Cl)cc2)CC(=O)N1CCS(C)(=O)=O (centres unmarked) [Compound 62, Benzyl 4-(4-chlorophenyl)-6-methyl-1-(2-methylsulfonylethyl)-2-oxo-3,4-dihydropyridine-5-carboxylate] | 2.3 | 69 | 5.9 | 42 |
| CC1=C(C(=O)OCc2ccccc2)C(c2ccc(Cl)cc2)CC(=O)N1CC(N)=O (centres unmarked) [Compound 60, Benzyl 1-(2-amino-2-oxo-ethyl)-4-(4-chlorophenyl)-6-methyl-2-oxo-3,4-dihydropyridine-5-carboxylate] | 13.5 | 42 | 14.4 | 32 |
| CC1=C(C(=O)OCc2ccccc2)C(c2ccc(Cl)cc2)CC(=O)N1CCN1CCCCC1 (centres unmarked) [Compound 56, Benzyl 4-(4-chlorophenyl)-6-methyl-2-oxo-1-[2-(1-piperidyl)ethyl]-3,4-dihydropyridine-5-carboxylate] | 3.6 | 50 | – | 3 |
| COCCN1C(=O)CC(c2ccc(Cl)cc2)C(C(=O)OCc2ccc(F)cc2)=C1C (centres unmarked) [Example 86, (4-fluorophenyl)methyl 4-(4-chlorophenyl)-1-(2-methoxyethyl)-6-methyl-2-oxo-3,4-dihydropyridine-5-carboxylate] | 0.4 | 71 | 0.4 | 82 |
| COCCN1C(=O)CC(c2ccc(Cl)cc2)C(C(=O)OCc2ccccc2C#N)=C1C (centres unmarked) [Example 93, (2-cyanophenyl)methyl 4-(4-chlorophenyl)-1-(2-methoxyethyl)-6-methyl-2-oxo-3,4-dihydropyridine-5-carboxylate] | 0.6 | 58 | 0.8 | 53 |
| C=C(C)CN1C(=O)CC(c2ccc(Cl)cc2)C(C(=O)OCc2ccccc2)=C1C (centres unmarked) [Compound 39, Benzyl 4-(4-chlorophenyl)-6-methyl-1-(2-methylallyl)-2-oxo-3,4-dihydropyridine-5-carboxylate] | 1.3 | 82 | 1.4 | 73 |
| COCCN1C(=O)CC(c2ccc(C#N)cc2)C(C(=O)OCc2ccccc2OC)=C1C (centres unmarked) [Example 125, (2-methoxyphenyl)methyl 4-(4-cyanophenyl)-1-(2-methoxyethyl)-6-methyl-2-oxo-3,4-dihydropyridine-5-carboxylate] | 0.2 | 86 | 0.2 | 100 |
| COc1ccccc1COC(=O)C1=C(C)N(C[C@@H]2CCCO2)C(=O)C[C@@H]1c1ccc(Cl)nc1 [Example 162, (2-M ethoxyphenyl)-methyl-(4R)-4-(6-chloro-3-pyridyl)-6-methyl-2-oxo-1-[[(2S)-tetrahydrofuran-2-yl]methyl]-3,4-dihydropyridine-5-carboxylate] | 0.32 | 92 | – | 86 |
| COCCN1C(=O)CC(c2ccc(Cl)cc2)C(C(=O)OCc2ccc(C(=O)OC)cc2)=C1C (centres unmarked) [Example 97, (4-methoxycarbonylphenyl)methyl 4-(4-chlorophenyl)-1-(2-methoxyethyl)-6-methyl-2-oxo-3,4-dihydropyridine-5-carboxylate] | 0.4 | 76 | 0.4 | 76 |
| CC1=C(C(=O)OCc2ccccc2)C(c2ccc(Cl)cc2)CC(=O)N1CCNC(=O)OC(C)(C)C (centres unmarked) [Compound 52, Benzyl 1-[2-(tert-butoxycarbonylamino)ethyl]-4-(4-chlorophenyl)-6-methyl-2-oxo-3,4-dihydropyridine-5-carboxylate] | 2.5 | 18 | – | 0 |
| COCCN1C=C(C(=O)OCc2ccccc2)C(c2ccc(Cl)cc2)CC1=O (centres unmarked) [Compound 32, Benzyl 4-(4-chlorophenyl)-1-(2-methoxyethyl)-2-oxo-3,4-dihydropyridine-5-carboxylate] | 0.6 | 77 | 1.1 | 55 |
| COCCN1C(=O)CC(c2ccc(Cl)cc2)C(C(=O)OCc2cccc(C(F)(F)F)c2)=C1C (centres unmarked) [Example 91, [3-(trifluoromethyl)phenyl]methyl 4-(4-chlorophenyl)-1-(2-methoxyethyl)-6-methyl-2-oxo-3,4-dihydropyridine-5-carboxylate] | 0.5 | – | 0.7 | – |
| CC1=C(C(=O)OCc2ccccc2)C(c2ccc(Cl)cc2)CC(=O)N1CC(=O)OC(C)(C)C (centres unmarked) [Compound 58, Benzyl 1-(2-tert-butoxy-2-oxo-ethyl)-4-(4-chlorophenyl)-6-methyl-2-oxo-3,4-dihydropyridine-5-carboxylate] | 1.34 | 50 | 0.42 | 70 |
| C#CCN1C(=O)CC(c2ccc(Cl)cc2)C(C(=O)OCc2ccccc2)=C1C (centres unmarked) [Compound 40, Benzyl 4-(4-chlorophenyl)-6-methyl-2-oxo-1-prop-2-ynyl-3,4-dihydropyridine-5-carboxylate] | 0.9 | 81 | 0.9 | 76 |
